Tests used:
[1] = target: T1, GPR6 (Homo sapiens, UniProt P46095); assay: GPR6 antagonist functional cAMP assay (LANCE Ultra cAMP TR-FRET, CHO cells stably expressing GPR6); type: cell-based
T1 construct: expressed in transfected cells; host or cells: CHO cells
How it was run: (§1)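 Stable CHO-GPR6 or CHO-GPR3 cells (10,000/well) in Krebs-Ringer buffer with 0.1% BSA and 150 μM Ro 20-1724 were exposed to compounds for 45 min at 37° C (0.1% DMSO). cAMP read by LANCE Ultra TR-FRET; IC50 from 4-parameter fit normalized to DMSO and reference compounds.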

[2] = target: T2, GPR3 (Homo sapiens, UniProt P46089); assay: GPR3 antagonist functional cAMP assay (LANCE Ultra cAMP TR-FRET, CHO cells stably expressing GPR3); type: cell-based
T2 construct: expressed in transfected cells; host or cells: CHO cells
T2 sequence (P46089 whole entry, species assumed): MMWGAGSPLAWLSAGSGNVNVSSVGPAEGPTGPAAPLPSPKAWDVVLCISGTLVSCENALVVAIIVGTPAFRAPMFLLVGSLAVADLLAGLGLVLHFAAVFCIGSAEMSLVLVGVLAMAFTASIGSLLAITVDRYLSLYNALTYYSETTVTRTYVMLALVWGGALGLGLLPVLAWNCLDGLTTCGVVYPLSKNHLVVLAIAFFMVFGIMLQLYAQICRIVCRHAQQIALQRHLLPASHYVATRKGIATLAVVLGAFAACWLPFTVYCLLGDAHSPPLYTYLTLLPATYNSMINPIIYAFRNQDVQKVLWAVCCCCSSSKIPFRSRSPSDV
How it was run: as §1

[3] = procedure as described in Example 24
[4] = CHO cells stably expressing GPR6, cAMP assay (Example 24)
[5] = CHO cells stably expressing GPR3, cAMP assay (Example 24)
[6] = CHO cells stably expressing GPR6, cAMP assay
[7] = CHO cells stably expressing GPR3, cAMP assay

T1 sequence (P46095 whole entry): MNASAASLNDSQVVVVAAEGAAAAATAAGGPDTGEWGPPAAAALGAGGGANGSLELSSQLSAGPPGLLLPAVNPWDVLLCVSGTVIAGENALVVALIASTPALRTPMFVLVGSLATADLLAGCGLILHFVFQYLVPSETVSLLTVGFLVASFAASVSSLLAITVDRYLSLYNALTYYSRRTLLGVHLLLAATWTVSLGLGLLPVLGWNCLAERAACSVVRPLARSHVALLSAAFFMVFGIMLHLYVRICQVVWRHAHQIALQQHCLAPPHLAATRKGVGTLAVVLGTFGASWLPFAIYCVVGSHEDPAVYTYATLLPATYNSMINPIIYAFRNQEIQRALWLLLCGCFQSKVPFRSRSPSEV

SMILES | IC50 ([1]; procedure of Example 24) [µM] | IC50 ([2]; procedure of Example 24) [µM] | IC50 [1, 4] [µM] | IC50 [2, 5] [µM] | other results
CC(=O)N1CCc2nc(N3CCC(Oc4ccc(F)cc4F)CC3)c(-c3cnn(C)c3)nc2C1 [Compound 44, 1-{2-[4-(2,4-difluorophenoxy)piperidin-1-yl]-3-(1-methyl-1H-pyrazol-4-yl)-5H,6H,7H,8H-pyrido[3,4-b]pyrazin-6-yl}ethan-1-one] |  |  |  |  | IC50 [1, 3]: 0.1 to 1 µM; IC50 [2, 3]: 1 to 30 µM
CC(=O)N1CCc2nc(N3CCC(Oc4ccc(F)cc4F)CC3)c(-c3cc[nH]c3)nc2C1 [Compound 46, 1-{2-[4-(2,4-difluorophenoxy)piperidin-1-yl]-3-(1H-pyrrol-3-yl)-5H,6H,7H,8H-pyrido[3,4-b]pyrazin-6-yl}ethan-1-one] |  |  |  |  | IC50 [1, 3]: 0.1 to 1 µM; IC50 [2, 3]: 1 to 30 µM
CC(=O)N1CCc2nc(N3CCN(C(c4ccccc4)C(F)(F)F)CC3)c(-c3cnn(C)c3)nc2C1 (stereo not drawn) [Compound 730, 1-{3-(1-methyl-4-pyrazolyl)-2-[4-(2,2,2-trifluoro-1-phenylethyl)-1-piperazinyl]-5,6,7,8-tetrahydro-1,4,6-triaza-6-naphthyl}-1-ethanone] | 1 to 30 | 1 to 30 |  |  | 
O=C(N1CCOCC1)N1CCc2nc(N3CCC(Oc4ccc(F)cc4F)CC3)c(-c3cn[nH]c3)nc2C1 [Compound 120, 4-{2-[4-(2,4-difluorophenoxy)piperidin-1-yl]-3-(1H-pyrazol-4-yl)-5H,6H,7H,8H-pyrido[3,4-b]pyrazine-6-carbonyl}morpholine] |  |  | 0.1 to 1 | 1 to 30 | 
CC(=O)N1CCc2nc(N3CCC(Oc4ccc(F)cc4F)CC3)c(-c3cccc(=O)n3C)nc2C1 [Compound 36, 6-{6-acetyl-2-[4-(2,4-difluorophenoxy)piperidin-1-yl]-5H,6H,7H,8H-pyrido[3,4-b]pyrazin-3-yl}-1-methyl-1,2-dihydropyridin-2-one] |  |  |  |  | IC50 [1, 3]: 1 to 30 µM; IC50 [2, 3]: 0.1 to 1 µM
CC(=O)N1CCc2nc(N3CCCC(Oc4ccc(F)cc4)C3)c(-c3cnn(C)c3)nc2C1 (stereo not drawn) [Compound 338, 1-{2-[3-(4-fluorophenoxy)piperidin-1-yl]-3-(1-methyl-1H-pyrazol-4-yl)-5H,6H,7H,8H-pyrido[3,4-b]pyrazin-6-yl}ethan-1-one] | ≥ 30 | 1 to 30 |  |  | 
COC1CCC(c2nc3c(nc2N2CCC(Oc4ccc(F)cc4F)CC2)CCN(C(C)=O)C3)CC1 (stereo not drawn) [Compound 373, 1-(2-(4-(2,4-difluorophenoxy)piperidin-1-yl)-3-(4-methoxycyclohexyl)-7,8-dihydropyrido[3,4-b]pyrazin-6(5H)-yl)ethan-1-one] | 0.1 to 1 | 1 to 30 |  |  | 
CC(=O)N1CCc2nc(N3CCC(Oc4ccc(F)cc4F)CC3)c(-c3cncc(C)n3)nc2C1 [Compound 444, 1-{2-[4-(2,4-difluorophenoxy)piperidin-1-yl]-3-(6-methylpyrazin-2-yl)-5H,6H,7H,8H-pyrido[3,4-b]pyrazin-6-yl}ethan-1-one] |  |  | 1 to 30 | 1 to 30 | 
CCn1cc(-c2nc3c(nc2N2CCC(Oc4ccc(F)cc4F)CC2)CCN(C(=O)C2CC(F)(F)CN2)C3)cn1 (stereo not drawn) [Compound 481, (2-(4-(2,4-difluorophenoxy)piperidin-1-yl)-3-(1-ethyl-1H-pyrazol-4-yl)-7,8-dihydropyrido[3,4-b]pyrazin-6(5H)-yl)(4,4-difluoropyrrolidin-2-yl)methanone] |  |  | 0.1 to 1 | 1 to 30 | 
CC(C)S(=O)(=O)N1CCc2nc(N3CCC(Oc4ccc(F)cc4F)CC3)c(-c3cnn(C4CCCCO4)c3)nc2C1 (stereo not drawn) [Compound 176, 4-(2,4-difluorophenoxy)-1-{3-[1-(oxan-2-yl)-1H-pyrazol-4-yl]-6-(propane-2-sulfonyl)-5H,6H,7H,8H-pyrido[3,4-b]pyrazin-2-yl}piperidine] |  |  | 0.1 to 1 | 1 to 30 | 
CC(=O)N1CCc2nc(-c3cn[nH]c3)c(N3CCC(Oc4ccc(F)cc4F)CC3)nc2C1 [Compound 115, 1-{3-[4-(2,4-difluorophenoxy)piperidin-1-yl]-2-(1H-pyrazol-4-yl)-5H,6H,7H,8H-pyrido[3,4-b]pyrazin-6-yl}ethan-1-one] |  |  | 0.1 to 1 | 1 to 30 | 
CC(=O)N1CCc2nc(N3CCC(Oc4ccc(F)cc4F)CC3)c(-c3ccn(C(=O)OC(C)(C)C)c3)nc2C1 [Compound 53, tert-butyl 3-{6-acetyl-2-[4-(2,4-difluorophenoxy)piperidin-1-yl]-5H,6H,7H,8H-pyrido[3,4-b]pyrazin-3-yl}-1H-pyrrole-1-carboxylate] |  |  |  |  | IC50 [1, 3]: 1 to 30 µM; IC50 [2, 3]: 0.1 to 1 µM
Cn1cc(-c2nc3cnc([C@H](O)C(C)(C)O)cc3nc2N2CCN(Cc3ccc(F)cc3F)CC2)cn1 (single isomer, unassigned) [Compound 579] |  |  |  |  | IC50 [1, 6]: < 0.1 µM; IC50 [2, 7]: 0.1 to 1 µM
CC(=O)N1CCc2nc(N3CCC(Oc4ccc(F)cc4F)CC3)c(-c3cnn(CCC#N)c3)nc2C1 [Compound 73, 3-(4-{6-acetyl-2-[4-(2,4-difluorophenoxy)piperidin-1-yl]-5H,6H,7H,8H-pyrido[3,4-b]pyrazin-3-yl}-1H-pyrazol-1-yl)propanenitrile] |  |  | 0.1 to 1 | 1 to 30 | 
CC(=O)N1CCc2nc(N3CCN(Cc4cccc(=O)n4C)CC3)c(-c3cnn(C)c3)nc2C1 [Compound 533, 6-({4-[6-acetyl-3-(1-methyl-4-pyrazolyl)-5,6,7,8-tetrahydro-1,4,6-triaza-2-naphthyl]-1-piperazinyl}methyl)-1-methyl-2(1H)-pyridinone] |  |  |  |  | IC50 [1, 6]: ≥ 30 µM; IC50 [2, 7]: ≥ 30 µM
CN(C)C(=O)N1CCc2nc(N3CCC(Oc4ccc(F)cc4F)CC3)c(-c3cn[nH]c3)nc2C1 [Compound 187, 2-[4-(2,4-difluorophenoxy)piperidin-1-yl]-N,N-dimethyl-3-(1H-pyrazol-4-yl)-5H,6H,7H,8H-pyrido[3,4-b]pyrazine-6-carboxamide] |  |  | < 0.1 | 1 to 30 | 
CCn1cc(-c2nc3c(nc2N2CCC(Oc4ccc(F)cc4F)CC2)CCN(S(C)(=O)=O)C3)cn1 [Compound 269, 4-(2,4-difluorophenoxy)-1-[3-(1-ethyl-1H-pyrazol-4-yl)-6-methanesulfonyl-5H,6H,7H,8H-pyrido[3,4-b]pyrazin-2-yl]piperidine] | < 0.1 | 1 to 30 |  |  | 
Fc1ccc(Cl)cc1CN1CCN(c2nc3cnccc3nc2-c2ncc[nH]2)CC1 [Compound 42] |  |  |  |  | IC50 [1, 3]: 1 to 30 µM; IC50 [2, 3]: 0.1 to 1 µM

Further lines, with some results ahead:

IC50 ([1]; procedure of Example 24) [µM] | IC50 ([2]; procedure of Example 24) [µM] | IC50 [1, 4] [µM] | IC50 [2, 5] [µM] | SMILES | other results
≥ 30 | 1 to 30 |  |  | Cn1cc(-c2nc3cnccc3nc2N2CCN(Cc3ccc(F)cc3F)C[C@H]2CO)cn1 (single isomer, unassigned) [Compound 292] | 
 |  | 1 to 30 | 1 to 30 | CC(=O)N1CCc2nc(N3CCC(C(=O)N(C)Cc4ccc(F)cc4F)C3)c(-c3cnn(C)c3)nc2C1 (stereo not drawn) [Compound 387, 1-[6-acetyl-3-(1-methyl-1H-pyrazol-4-yl)-5H,6H,7H,8H-pyrido[3,4-b]pyrazin-2-yl]-N-[(2,4-difluorophenyl)methyl]-N-methylpyrrolidine-3-carboxamide] | 
< 0.1 | 1 to 30 |  |  | CC(C)(O)C(C)(O)c1cc2nc(-c3cnn(C(F)F)c3)c(N3CCN(Cc4ccc(F)cc4F)CC3)nc2cn1 (stereo not drawn) [Compound 633, 2-{2-[1-(difluoromethyl)-4-pyrazolyl]-3-{4-[(2,4-difluorophenyl)methyl]-1-piperazinyl}-1,4,6-triaza-7-naphthyl}-3-methyl-2,3-butanediol] | 
1 to 30 | 1 to 30 |  |  | Cn1cc(-c2nc3cnc(C(=O)O)cc3nc2N2CCC(Oc3ccc(F)cc3F)CC2)cn1 [Compound 314, 2-[4-(2,4-difluorophenoxy)piperidin-1-yl]-3-(1-methyl-1H-pyrazol-4-yl)pyrido[3,4-b]pyrazine-7-carboxylic acid] | 
 |  | 1 to 30 | 1 to 30 | CC(=O)N1CCc2nc(N3CCN(Cc4ccc(F)cc4F)C[C@@H]3C)c(-c3cnn(C)c3)nc2C1 (single isomer, unassigned) [Compound 232] | 
≥ 30 | ≥ 30 |  |  | Cn1cc(-c2nc3cnccc3nc2N2CCc3c(cnn3-c3ccc(F)cc3F)C2)cn1 [Compound 788, 1-(2,4-difluorophenyl)-5-[3-(1-methyl-4-pyrazolyl)-1,4,6-triaza-2-naphthyl]-4,5,6,7-tetrahydro-1H-1,2,5-triazaindene] | 
 |  | 1 to 30 | 1 to 30 | COCC1CN(c2nc3ccncc3nc2-c2cn[nH]c2)CCN1Cc1ccc(F)cc1F (single isomer, unassigned) [Compound 89, 2-(4-(2,4-difluorobenzyl)-3-(methoxymethyl)piperazin-1-yl)-3-(1H-pyrazol-4-yl)pyrido[3,4-b]pyrazine] | 
 |  | 0.1 to 1 | 1 to 30 | COc1cccc(-c2nc3c(nc2N2CCN(Cc4ccc(F)cc4Cl)CC2)CCN(C(C)=O)C3)n1 [Compound 205, 1-(2-{4-[(2-chloro-4-fluorophenyl)methyl]piperazin-1-yl}-3-(6-methoxypyridin-2-yl)-5H,6H,7H,8H-pyrido[3,4-b]pyrazin-6-yl)ethan-1-one] | 
1 to 30 | 1 to 30 |  |  | CC(=O)Nc1cc2nc(N3CCN(Cc4ccc(F)cc4F)CC3)c(-c3cnn(C)c3)nc2cn1 [Compound 297, N-(2-{4-[(2,4-difluorophenyl)methyl]piperazin-1-yl}-3-(1-methyl-1H-pyrazol-4-yl)pyrido[3,4-b]pyrazin-7-yl)acetamide] | 
 |  | 0.1 to 1 | 1 to 30 | C[C@H](O)[C@H](O)c1cc2nc(N3CCC(Oc4ccc(F)cc4F)CC3)c(-c3cnn(C)c3)nc2cn1 (single isomer, unassigned) [Compound 471] | 
0.1 to 1 | 1 to 30 |  |  | CC(C)(O)[C@](C)(O)c1cc2nc(N3CCN(Cc4ccc(F)cc4F)CC3)c(-c3cnn(C(F)F)c3)nc2cn1 (single isomer, unassigned) [Compound 694] | 
0.1 to 1 | 1 to 30 |  |  | CC(C)(O)Cc1cc2nc(N3CCC(Oc4ccc(F)cc4F)CC3)c(-c3cnn(C(F)F)c3)nc2cn1 [Compound 700, 1-{3-[1-(difluoromethyl)-4-pyrazolyl]-2-[4-(2,4-difluorophenoxy)-1-piperidyl]-1,4,6-triaza-7-naphthyl}-2-methyl-2-propanol] | 

— patent US20260042755A1, “GPR6 INVERSE AGONISTS” (MapLight Therapeutics, Inc., priority 2022, published 2026)
